Each molecule was assayed on Neisseria gonorrhoeae (assay: EC50 determination: plate-based broth growth assay (absorbance at 600 nm) of Neisseria gonorrhoeae). Conditions: absorbance 600 nm after 20 hours at 37° C./5% CO2, read-out: IC50 (Inhibitory concentration) against Neisseria gonorrhoeae.
Format: cell-based
Procedure: Actively growing Neisseria gonorrhoeae on GC agar (based on; Spence et. al. (2008): Curr. Protoc. Microbiol. 8:4A.1.1-4A.1.26) plates are harvested and transferred to GC broth (based on; Spence et al (2008): Curr. Protoc. Microbiol. 8:4A.1.1-4A.1.26) to generate a liquid stock. This culture is allowed to establish and grow to mid-log phase (at 37° C./5% CO2), finally this culture is diluted (˜10^5 cells/ml) to generate a seed inoculum to establish plate-based broth assays. EC50 values were determined by assaying growth (absorbance read at 600 nm, after 20 hours at 37° C./5% CO2) of Neisseria gonorrhoeae across a 10-point dilution series of the test compound. The EC50 value is determined from transformed data to identify the concentration of compound giving a 50% response relative to control samples (no compound).

`Cc1nnc(Nc2nc3cc(C(F)(F)F)c(Cl)cc3o2)[nH]1` [Example 125, 6-chloro-N-(5-methyl-4H-1,2,4-triazol-3-yl)-5-(trifluoromethyl)benzo[d]oxazol-2-amine] and `FC(F)(F)c1cc2nc(Nc3nnc(CN4CCCC4)[nH]3)oc2cc1Cl` [Example 137, 6-Chloro-N-(5-(pyrrolidin-1-ylmethyl)-4H-1,2,4-triazol-3-yl)-5-(trifluoromethyl)benzo[d]oxazol-2-amine] cannot be ordered by IC50: at most 100 nM for the first, at most 100 nM for the second.

`CC(C)(C)OC(=O)N1CCN(c2nnc(Nc3nc4cc(C(F)(F)F)ccc4o3)o2)CC1` [Example 148, tert-butyl 4-(5-((5-(trifluoromethyl)benzo[d]oxazol-2-yl)amino)-1,3,4-oxadiazol-2-yl)piperazine-1-carboxylate] and `FC(F)(F)c1ccc2oc(Nc3nnc(CN4CCCC4)o3)nc2c1` [Example 71, N-(5-(Pyrrolidin-1-ylmethyl)-1,3,4-oxadiazol-2-yl)-5-(trifluoromethyl)benzo[d]oxazol-2-amine] cannot be ordered by IC50: at most 100000 nM for the first, at most 1000 nM for the second.

`Cc1nnc(Nc2nc3cc(C(F)(F)F)ccc3[nH]2)s1` [Example 86, 5-Methyl-N-(5-(trifluoromethyl)-1H-benzo[d]imidazol-2-yl)-1,3,4-thiadiazol-2-amine] and `FC(F)(F)c1ccc2oc(Nc3nc4ccccc4[nH]3)nc2c1` [Example 167, N-(1H-Benzo[d]imidazol-2-yl)-5-(trifluoromethyl) benzo[d]oxazol-2-amine] cannot be ordered by IC50: at most 1000 nM for the first, at most 1000 nM for the second.

`Fc1cc2nc(Nc3nnco3)oc2cc1F` [Example 48, 5,6-diFluoro-N-(1,3,4-oxadiazol-2-yl)benzo[d]oxazol-2-amine] and `COc1cc2nc(Nc3nnco3)oc2cc1F` [Example 209, 6-Fluoro-5-methoxy-N-(1,3,4-oxadiazol-2-yl)benzo[d]oxa-zol-2-amine] cannot be ordered by IC50: at most 100 nM for the first, at most 1000 nM for the second.

`FC(F)(F)c1ccc2oc(Nc3nnc(CN4CCOCC4)o3)nc2c1` [Example 70, N-(5-(morpholinomethyl)-1,3,4-oxadiazol-2-yl)-5-(trifluoromethyl)benzo[d]oxazol-2-amine] and `FC1CCN(Cc2nnc(Nc3nc4cc(C(F)(F)F)ccc4o3)o2)C1` (stereo not shown) [Example 79, N-(5-((3-Fluoropyrrolidin-1-yl)methyl)-1,3,4-oxadiazol-2-yl)-5-(trifluoromethyl)benzo[d]oxazol-2-amine] cannot be ordered by IC50: at most 1000 nM for the first, at most 1000 nM for the second.

`FC(F)(F)c1cc2oc(Nc3nc4ccccc4o3)nc2cn1` [Example 163, N-(Benzo[d]oxazol-2-yl)-6-(trifluoromethyl) oxazolo[4,5-c]pyridin-2-amine] and `FC(F)(F)c1cc2oc(Nc3nc4cnccc4o3)nc2cn1` [Example 161, N-(Oxazolo[4,5-c]pyridin-2-yl)-6-(trifluoromethyl)oxazolo[4,5-c]pyridin-2-amine] cannot be ordered by IC50: at most 100 nM for the first, at most 100000 nM for the second.

`O=C(O)c1ccc2nc(Nc3nnco3)oc2c1` [Example 192, 2-((1,3,4-oxadiazol-2-yl)amino)benzo[d]oxazole-6-carboxylic acid] and `COC(=O)c1ccc2nc(Nc3nnco3)oc2c1` [Example 178, Methyl 2-((1,3,4-oxadiazol-2-yl)amino)ben-zo[d]oxazole-6-carboxylate] cannot be ordered by IC50: at most 10000 nM for the first, at most 1000 nM for the second.

`Clc1cc(Cl)c2nc(Nc3nnco3)oc2c1` [Example 45, 4,6-Dichloro-N-(1,3,4-oxadiazol-2-yl)benzo[d]oxazol-2-amine] and `Cc1cc(Cl)cc2oc(Nc3nnco3)nc12` [Example 189, 6-Chloro-4-methyl-N-(1,3,4-oxadiazol-2-yl)benzo[d]ox-azol-2-amine] cannot be ordered by IC50: at most 100 nM for the first, at most 100 nM for the second.

`FC(F)(F)Oc1cc2oc(Nc3nnco3)nc2cc1Cl` [Example 191] and `Clc1cc2nc(Nc3nnco3)oc2cc1Cl` [Example 152, 5,6-Dichloro-N-(1,3,4-oxadiazol-2-yl)benzo[d]oxazol-2-amine] cannot be ordered by IC50: at most 100 nM for the first, at most 100 nM for the second.

`CC(C)c1nnc(Nc2nc3ccc(Cl)cc3o2)o1` [Example 214, 6-Chloro-N-(5-isopropyl-1,3,4-oxadiazol-2-yl)benzo[d]oxa-zol-2-amine] and `Cc1nnc(Nc2nc3cc(Cl)ccc3o2)o1` [Example 50, 5-Chloro-N-(5-methyl-1,3,4-oxadiazol-2-yl)benzo[d]oxazol-2-amine] cannot be ordered by IC50: at most 100 nM for the first, at most 100 nM for the second.

`Clc1ccc2nc(Nc3ccon3)oc2c1` [Example 46, 6-Chloro-N-(isoxazol-3-yl)benzo[d]oxazol-2-amine] and `Cc1cc(Nc2nc3ccc(Cl)cc3o2)no1` [Example 172, 6-Chloro-N-(5-methylisoxazol-3-yl)benzo[d]oxazol-2-amine] cannot be ordered by IC50: at most 1000 nM for the first, at most 1000 nM for the second.

`Cc1nnc(Nc2nc3ccc(C(F)(F)F)cc3o2)o1` [Example 104, N-(5-Methyl-1,3,4-oxadiazol-2-yl)-6-(trifluoromethyl)benzo[d]oxazol-2-amine] and `CCOC(=O)c1nnc(Nc2nc3cc(C(F)(F)F)ccc3o2)o1` [Example 52, Ethyl 5-((5-(trifluoromethyl)benzo[d]oxazol-2-yl)amino)-1,3,4-oxadiazole-2-carboxylate] cannot be ordered by IC50: at most 100 nM for the first, at most 1000 nM for the second.

`CC(C)Oc1ccc2nc(Nc3nnco3)oc2c1` [Example 196, 6-Isopropoxy-N-(1,3,4-oxadiazol-2-yl)benzo[d]oxazol-2-amine] and `c1nnc(Nc2nc3ccc(C4CC4)cc3o2)o1` [Example 180, 6-Cyclopropyl-N-(1,3,4-oxadiazol-2-yl)benzo[d]ox-azol-2-amine] cannot be ordered by IC50: at most 100000 nM for the first, at most 1000 nM for the second.

`O=C(NC1CC1)c1coc(Nc2nc3cc(C(F)(F)F)ccc3o2)n1` [Example 24, N-Cyclopropyl-2-((5-(trifluoromethyl)benzo[d]oxazol-2-yl)amino)oxazole-4-carboxamide] and `Cc1cnc(Nc2nc3cc(C(F)(F)F)ccc3o2)o1` [Example 112, N-(5-Methyloxazol-2-yl)-5-(trifluoromethyl)benzo[d]oxazol-2-amine] cannot be ordered by IC50: at most 1000 nM for the first, at most 1000 nM for the second.

`O=C(NC1CC1)c1csc(Nc2nc3ccc(F)cc3o2)n1` [Example 19, N-Cyclopropyl-2-((6-fluorobenzo[d]oxazol-2-yl)amino)thiazole-4-carboxamide] and `Cc1ccc2oc(Nc3nc(C(=O)NC4CC4)cs3)nc2c1` [Example 16, N-Cyclopropyl-2-((5-methylbenzo[d]oxazol-2-yl)amino)thiazole-4-carboxamide] cannot be ordered by IC50: at most 1000 nM for the first, at most 1000 nM for the second.

`NC(=O)c1csc(Nc2nc3cccc(Cl)c3o2)n1` [Example 36, 2-((7-Chlorobenzo[d]oxazol-2-yl)amino)thiazole-4-carboxamide] and `NC(=O)c1csc(Nc2nc3ccc(Cl)cc3o2)n1` [Example 33, 2-((6-Chlorobenzo[d]oxazol-2-yl)amino)thiazole-4-carboxamide] cannot be ordered by IC50: at most 1000 nM for the first, at most 1000 nM for the second.

`Cc1nnc(Nc2nc3c(C)nccc3o2)o1` [Example 154, 4-Methyl-N-(5-methyl-1,3,4-oxadiazol-2-yl)oxazolo[4,5-c]pyridin-2-amine] and `Cc1nnc(Nc2nc3c(Cl)cc(Cl)cc3o2)o1` [Example 40, 4,6-Dichloro-N-(5-methyl-1,3,4-oxadiazol-2-yl)benzo[d]oxazol-2-amine] cannot be ordered by IC50: at most 10000 nM for the first, at most 100 nM for the second.

`Cn1cnnc1Nc1nc2cc(C(F)(F)F)ccc2o1` [Example 41, N-(4-methyl-4H-1,2,4-triazol-3-yl)-5-(trifluoromethyl)benzo[d]oxazol-2-amine] and `CC(=O)N(C)Cc1nnc(Nc2nc3cc(C(F)(F)F)ccc3o2)o1` [Example 94, N-Methyl-N-((5-((5-(trifluoromethyl)benzo[d]oxazol-2-yl)amino)-1,3,4-oxadiazol-2-yl)methyl)acetamide] cannot be ordered by IC50: at most 1000 nM for the first, at most 10000 nM for the second.

`Clc1ccc2oc(Nc3nnco3)nc2c1` [Example 135, 5-Chloro-N-(1,3,4-oxadiazol-2-yl)benzo[d]oxazol-2-amine] and `Cc1cc2nc(Nc3nnco3)oc2cc1Cl` [Example 188, 6-Chloro-5-methyl-N-(1,3,4-oxadiazol-2-yl)benzo[d]ox-azol-2-amine] cannot be ordered by IC50: at most 100 nM for the first, at most 100 nM for the second.

`c1nnc(Nc2nc3ccc(N4CCCCC4)cc3o2)o1` [Example 184, N-(1,3,4-Oxadiazol-2-yl)-6-(piperidin-1-yl)benzo[d]ox-azol-2-amine] and `FC(F)(F)c1ccc2nc(Nc3ncc(N4CCCCC4)s3)oc2c1` [Example 28, N-(5-(Piperidin-1-yl)thiazol-2-yl)-6-(trifluoromethyl)benzo[d]oxazol-2-amine] cannot be ordered by IC50: at most 1000 nM for the first, at most 1000 nM for the second.

`O=C(Nc1ccnc(F)c1)c1csc(Nc2nc3cc(C(F)(F)F)ccc3o2)n1` [Example 98, N-(2-fluoropyridin-4-yl)-2-((5-(trifluoromethyl)benzo[d]oxazol-2-yl)amino)thiazole-4-carboxamide] and `O=C(Nc1cccc(F)c1)c1csc(Nc2nc3cc(C(F)(F)F)ccc3o2)n1` [Example 9, N-(3-Fluorophenyl)-2-((5-(trifluoromethyl)benzo[d]oxazol-2-yl)amino)thiazole-4-carboxamide] cannot be ordered by IC50: at most 100 nM for the first, at most 1000 nM for the second.

`O=C(c1nnc(Nc2nc3c(Cl)cccc3o2)o1)N1CCCC1` [Example 134, (5-((4-Chlorobenzo[d]oxazol-2-yl)amino)-1,3,4-oxadiazol-2-yl)(pyrrolidin-1-yl)methanone] and `Clc1ccc2nc(Nc3ncno3)oc2c1` [Example 224, 6-chloro-N-(1,2,4-oxadiazol-5-yl)benzo[d]oxazol-2-amine] cannot be ordered by IC50: at most 10000 nM for the first, at most 100000 nM for the second.

`FC(F)(F)c1ccc2nc(Nc3ncc(N4CCOCC4)s3)oc2c1` [Example 27, N-(5-Morpholinothiazol-2-yl)-6-(trifluoromethyl)benzo[d]oxazol-2-amine] and `Clc1cnc2nc(Nc3nnco3)oc2c1` [Example 220, 6-Chloro-N-(1,3,4-oxadiazol-2-yl)oxazolo[4,5-b]pyridin-2-amine] cannot be ordered by IC50: at most 1000 nM for the first, at most 10000 nM for the second.
